From patent publication US20100292260A1, “6-VINYL PYRIMIDINE AND PYRIMIDINONE DERIVATIVES AND THE USE THEREOF” (priority 2005, published 2010) come the findings set out here.

Usually CC50 stands for the concentration that lowers cell viability or growth by half.

SMILES strings stand for the structures. Read-outs that look alike come from different tables or passages of the source.

Series [1] deals with HIV-1 mutant Y181L. Kind of series: Inhibition of viral proliferation on culture cells (MT-4, MTT), Y181L mutant. It counts as cell-based.
The subject of series [2] is HIV-1 mutant K103N. Kind of series: Inhibition of viral proliferation on culture cells (MT-4, MTT), K103N mutant. It counts as cell-based. On the procedure:
(§1) The biological activity of the compounds was evaluated on lymphoid cell lines MT-4 against the wild strain of HIV-1 NL4-3. The MT-4 cells were briefly infected with the appropriate HIV-1 or the infection was simulated to determine the cytoxicity, in the presence of different concentrations of potential inhibitor compounds. 5 days after the infection a colorimetric method was used that involves using a tetrazole salt (MTT) to evaluate the number of surviving cells. The mutant IRLL98 HIV-1 contains the following mutations in the coding sequence for RT:M41L, D67N, Y181C, M184V, R211K, T215Y (resistance to NRTI) and the mutations K101Q, Y181C, G190A (resistance to NNRTI). The H1V-1 mutants containing multi-NNRTI mutations, K103N or Y188L as mutants were supplied by the Medical Research Council Centralised Facility for AIDS Reagents, Herfordshire, UK.

The test system of series [3] is MT-4 cells. Kind of series: Cytotoxicity in mock-infected MT-4 cells (MTT). It counts as cell-based. On the procedure:
as §1

Series [4] concerns wild strain of HIV-1 NL4-3. Kind of series: Inhibition of viral proliferation on culture cells (MT-4, MTT), wild strain. It counts as cell-based. On the procedure:
as §1

The test system of series [5] is HIV-1 mutant Y188L. Kind of series: Inhibition of viral proliferation on culture cells (MT-4, MTT), Y188L mutant. It counts as cell-based. On the procedure:
as §1

Series [6] deals with HIV-1 mutant Y181C. Kind of series: Inhibition of viral proliferation on culture cells (MT-4, MTT), Y181C mutant. It counts as cell-based. The note with it: for EC50: Human immunodeficiency virus 1, read-out: Y181C. On the procedure: as §1
Series [7] in a line: Cytotoxicity in mock-infected MT-4 cells (MTT). It counts as cell-based. The note with it: human. On the procedure:
as §1

Series [8] addresses T1, HIV-1 (recombinant) reverse transcriptase (Human immunodeficiency virus type 1 group M subtype B, UniProt P03366).
T1 construct: 20-50 nM HIV-1 (recombinant) reverse transcriptase
Kind of series: Enzyme test: reverse transcription reaction in vitro with recombinant RT, wild type. It counts as biochemical. On the procedure:
(§2) In a final volume of 25 microlitres the following reagents were mixed: 50 mM Tris-HCl pH 7.5, 0.25 mg/ml BSA, 0.5 mM DTT, 20-50 nM HIV-1 (recombinant) reverse transcriptase, nucleotide substrate dTTP marked radioactively (^3H, 4 Ci/mmol) and nucleic acid (poly(rA)/oligo(dT)). The concentrations of dTTP and poly(rA)/oligo(dT) in standard conditions were 5 μM and 0.5 μM, respectively.
(§3) The reaction mixture is incubated 10 min. at 37° C. and 20 μl are removed and deposited on a GF/C Whatman glass fibre filter measuring 25 mm in diameter. The filters are washed 3 times for 5 min. in 5% trichloroacetic acid and once for 5 min. in absolute alcohol. After being dried, the filters are immersed in a scintillating mixture (Packard) and the acid precipitable radioactivity is measured by a scintillation counter for β-emitting isotopes (Beckman).
(§4) The dose-response curves obtained by means of samples of enzyme activity in the presence of increasing doses of inhibitor were analysed according to the equation E(%)=Emax/([…], where E(%) is the fraction of enzyme activity that is measurable in the presence of each concentration of inhibitor, Emax is the activity in the absence of an inhibitor, I is the concentration of inhibitor. The ID50 was calculated by analysing data using the GraphPad Prism graphic interpolation programme (for Macintosh).

The target of series [9] is T2, reverse transcriptase containing the mutation Y181I (Human immunodeficiency virus type 1 group M subtype B, UniProt P03366, Y780I).
T2 construct: cloning the gene of the mutated RT in an expression vector for prokariotic cells; made in house
Kind of series: Enzyme test with mutated reverse transcriptase Y181I. It counts as biochemical, HIV-1. Here is the method:
as §2, §3
(§5) In some experiments, the HIV-1 recombinant reverse transcriptase was substituted by a reverse transcriptase containing the mutations K.103N and Y181I. They were produced by cloning the gene of the mutated RT in an expression vector for prokariotic cells according to the method reported in the literature (Maga G, Amacker M, Ruel N, Hubscher U, Spadari S. Resistance to nevirapine of HIV-1 reverse transcriptase mutants: loss of stabilizing interactions and thermodynamic or steric barriers are induced by different single amino acid substitutions. J Mol Biol. Dec. 19, 1997; 274(5):738-47).
as §4

The target in series [10] is T3, reverse transcriptase containing the mutation K103N (Human immunodeficiency virus type 1 group M subtype B, UniProt P03366, K702N).
T3 construct: cloning the gene of the mutated RT in an expression vector for prokariotic cells; made in house
Kind of series: Enzyme test with mutated reverse transcriptase K103N. It counts as biochemical, HIV-1. Here is the method: as §2, §3, §5, §4

Setting [11] is: Table 1, MT-4 cells, read-out: EC50 NL4-3 wt.
Where [12] appears, read: Human immunodeficiency virus 1, MT4, read-out: EC50 Y181L.
Where [13] appears, read: Human immunodeficiency virus 1, MT4, read-out: EC50 K103N.
Where [14] appears, read: Human immunodeficiency virus 1, NL43, MT4, read-out: EC50 NL4-3 wt.
Where [15] appears, read: Table 1, recombinant RT wild type, read-out: ID50 WT.
[16] abbreviates: Human immunodeficiency virus 1, read-out: K100N.
[17] abbreviates: Human immunodeficiency virus 1, NL43, read-out: NL4-3 wt.
Setting [18] is: Human immunodeficiency virus 1, read-out: Y188L.
Where [19] appears, read: Table 2, enzyme test, read-out: WT.

With `C=Cc1cc(N(CC)CC)nc(SCc2ccc(OC)cc2)n1` [6′a], the EC50 in series [1] (Table 1, MT-4 cells, read-out: EC50 Y181L) was more than 35.8 µM; in [2] (Table 1, MT-4 cells, read-out: EC50 K103N) it was 3.6 µM; in series [4] (setting [11]) it was more than 33 µM. Also, the midpoint of cytotoxicity in series [3], the CC50, lay at 33 µM.

Take `COc1ccc(C#CCSc2nc(Cc3c(Cl)cccc3Cl)c(C)c(=O)[nH]2)cc1` [Compound 27c]: the EC50 is more than 56.2 µM in [2] (Table 3, cell test, read-out: K103N); 2.47 µM in series [4] (Table 3, cell test, read-out: NLA-3wt); more than 56.2 µM in series [5] (Table 3, cell test, read-out: Y188L). The CC50 in series [3] (Table 3, read-out: CC50) was more than 56.2 µM. The “Y181C, % at given concentration” value in [6] (Table 3, at 56.18) amounted to 40% at.

For `C=Cc1cc(N(C)C)nc(SC)n1` [Compound 6c], the EC50 in series [1] (setting [12]), in series [2] (setting [13]) and in series [4] (setting [14]) was more than 128 µM in each case. The CC50 at 5 days in [7] turned out to be 57.4 µM. Also, the IC50 in [8] (setting [15]) is more than 400 µM.

Regarding `C=Cc1cc(N(C)C)nc(S(C)(=O)=O)n1` [Compound 8a], the EC50 in [1] (setting [12]), in series [2] (setting [13]) and in [4] (setting [14]) was more than 110 µM throughout. In addition, half-maximal cytotoxicity in series [7] (CC50 at 5 days) was put at 110 µM. In addition, in series [4], the “activity in cell tests on wild type, in words” value is “did not show appreciable activity”. Also, the IC50 in series [9] worked out at 78 µM; in series [8] (setting [15]), 0.022 µM; in series [10] it was 28 µM. Further, the “activity against enzyme with resistance mutation in position 181, in words” value in [9] is “significantly active”. For the same compound, the “increase in activity in relation to the wild type enzyme” value in series [8] is 2900 times. Moreover, the “inhibition of the RT at different concentrations of dTTP” value in series [8] (FIG. 1) was “decreases with the increase of the concentrations of TTP”. For the same compound, in [8] (FIG. 2, different concentrations of 8a), the “apparent affinity (Kapp) of the RT for dTTP” value is “decreases as the concentration of 8a increases”. Also, the “inhibition of the RT at different concentrations of poly(rA)/oligo(dT)” value in [8] (FIG. 3) was “increase of the capacity thereof to inhibit RT”. Besides, in [8] (FIG. 3), the “preferred enzyme form bound” value is reported as “preferentially binds to the binary complex of the RT with the nucleic acid”. Further, the “reverse transcriptase ID50 greater than that of MB3B” value in [8] (compared with MB3B) was 3 orders of magnitude. For the same compound, the “action mechanism: inhibition of reverse transcriptase” value in series [8] (versus nucleotide substrate) is reported as “competitive with the nucleotide”. The “activity against enzyme with resistance mutation in position 103, in words” value in [10] is reported as “significantly active”.

In the case of `C=Cc1nc(S(C)(=O)=O)nc(N(C)C)c1I` [Compound 8b], the EC50 in series [1] (setting [12]), in series [2] (setting [13]) and in [4] (setting [14]) was more than 22.9 µM throughout. In series [7], this compound registered a CC50 at 5 days of 22.9 µM. Further, the figures for the IC50 in series [9], in [8] (setting [15]) and in series [10] were more than 400 µM, 275 µM and more than 400 µM, respectively.

In the case of `COc1ccc(C=CCSc2nc(C(C)c3c(Cl)cccc3Cl)c(C)c(=O)[nH]2)cc1` (centres unmarked) [Compound 26g], the EC50 came out at 2.47 µM in [2] (setting [16]), 0.009 µM in series [4] (setting [17]), 1.26 µM in series [5] (setting [18]) and 3.6 µM in series [6]. The compound also came in with a half-maximal cytotoxic concentration (CC50) at 5 days in series [7] of more than 10.8 µM. Also, in [4], the “activity in cell tests on wild type, in words” value is “nanomolar and subnanomolar activity”. The IC50 is more than 20 µM in [9], 0.018 µM in [8] (setting [19]) and more than 20 µM in series [10].

Compound `C=Cc1cc(N(CC)CC)nc(S(=O)(=O)Cc2ccc(OC)cc2)n1` [8′] showed a CC50 in series [3] of 42.9 µM. Moreover, the EC50 in [4] (setting [11]) is more than 42.9 µM. For the same compound, the IC50 in series [8] (setting [15]) turned out to be 467 µM.

As for `CCc1c(C(C)c2c(F)cccc2F)nc(SCC=Cc2ccc(OC)cc2)[nH]c1=O` (centres unmarked) [Compound 26p], in series [2], the “activity in cell tests on mutant K103N, in words” value was “micromolar and submicromolar activity”. The EC50 in [2] (setting [16]) was 1.02 µM; in series [4] (setting [17]), 0.0002 µM; in series [5] (setting [18]) it was 0.63 µM; in series [6], 0.7 µM. Also, the midpoint of cytotoxicity in series [7], the CC50 at 5 days, lay at 5.54 µM. For the same compound, the “activity in cell tests on wild type, in words” value in [4] is “nanomolar and subnanomolar activity”. The IC50 in series [9] is more than 20 µM; in series [8] (setting [19]), 0.016 µM; in [10], 0.4 µM. Moreover, the “activity in cell tests on mutant Y188L, in words” value in [5] was “micromolar and submicromolar activity”. For the same compound, in [6], the “activity in cell tests on mutant Y181C, in words” value was “micromolar and submicromolar activity”.
